Assay results from patent publication US20240317727A1 (Duke University, priority 2018, published 2024).

Experiments:
[1] = system: heat shock induced chaperone (Hsp25 and Hsp70) expression; experiment: Heat shock induced chaperone expression in MEFs, immunoblotting; format: cell-based, mouse; details: heat shock 42° C. 30 mins, 6-hour recovery, FIG. 3
Description: The MEFs were then subjected to heat shock stress at 42° C. for 30 mins to activate HSF1. After heat shock, the MEFs were incubated at 37° C. for a 6-hour recovery. The whole cell lysates were collected at the end of the experiment, and proteins of interest, including Hsp25, Hsp70, HSF1 and GAPDH (as loading control) were assessed by immunoblotting with the corresponding antibody.

[2] = target: T1, recombinant HSF1 DNA-binding domain (DBD) (Homo sapiens, UniProt Q00613); experiment: Differential Scanning Fluorimetry (DSF), HSF1 DBD melting temperature; details: for ΔTm at 25 µM: Table 1, 5 μM HSF1 DBD, 25PM Compound, positive = stabilizes, negative = destabilizes HSF1; for effect on melting temperature of HSF1: thermal denaturation profiling, FIG. 2
T1 sequence (Q00613 15-120): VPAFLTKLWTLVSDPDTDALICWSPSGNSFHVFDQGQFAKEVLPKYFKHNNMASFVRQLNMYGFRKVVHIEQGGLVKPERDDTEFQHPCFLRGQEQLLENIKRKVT

[3] = target: recombinant protein Hsc70 (Homo sapiens, UniProt P11142); experiment: Thermal denaturation of Hsc70 (selectivity); details: selectivity in binding, FIG. 2
[4] = system: C4-2 malignant prostate cancer cells vs BPH-1 non-tumorigenic prostate cells; experiment: AlamarBlue cell viability, C4-2 vs BPH-1; format: cell-based, human; details: FIG. 6A; for viability of C4-2 compared to BPH-1: 96 hours, AlamarBlue assay; for potency compared to Compound 0017: inhibition of metastatic prostate cancer cell growth
Description: The cells were treated for 96 hours with the indicated concentrations of the compounds of the disclosure and cell viability was measured with the AlamarBlue assay. FIG. 6B illustrates the results of Compound 0017 used in a 7-week Maximal Tolerated Dose (MTD) study conducted in mice (3 mice identified as 118, 119 and 120). […] After sacrificing the mice on the last day of the administration, mouse liver and heart tissue was isolated, messenger RNA extracted and the transcript abundance of the HSF1 target gene, Hsp70, was evaluated by qRT-PCR relative to the internal RNA control, GAPDH. The results of the vehicle-treated versus Compound 0017-treated experiments were compared.
Based on the chemical structure of Compound 0017 and its activity, and of other HSF1-interacting chemicals identified in the screen, additional derivatives were designed, synthesized and evaluated for binding to HSF1 and preferential inhibition of metastatic prostate cancer cells (C4-2) versus benign prostate cells (BPH-1).

Sequence of recombinant protein Hsc70 (P11142 whole entry, species assumed): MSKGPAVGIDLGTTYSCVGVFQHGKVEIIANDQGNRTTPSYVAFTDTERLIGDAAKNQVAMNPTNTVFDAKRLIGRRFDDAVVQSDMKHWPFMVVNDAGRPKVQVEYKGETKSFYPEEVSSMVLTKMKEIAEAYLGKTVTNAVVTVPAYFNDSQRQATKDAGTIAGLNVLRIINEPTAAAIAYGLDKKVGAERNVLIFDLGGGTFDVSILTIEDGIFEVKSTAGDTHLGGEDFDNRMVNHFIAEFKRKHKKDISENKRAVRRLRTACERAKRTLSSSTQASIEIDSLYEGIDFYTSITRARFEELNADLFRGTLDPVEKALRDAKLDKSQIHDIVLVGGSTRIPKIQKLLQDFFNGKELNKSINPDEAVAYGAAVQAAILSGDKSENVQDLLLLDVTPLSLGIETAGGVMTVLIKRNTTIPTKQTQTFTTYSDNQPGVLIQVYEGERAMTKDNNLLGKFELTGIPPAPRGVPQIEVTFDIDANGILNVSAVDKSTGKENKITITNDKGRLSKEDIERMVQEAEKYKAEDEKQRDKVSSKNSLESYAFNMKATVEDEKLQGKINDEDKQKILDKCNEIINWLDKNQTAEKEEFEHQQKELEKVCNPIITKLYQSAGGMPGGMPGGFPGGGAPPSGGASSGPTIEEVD

| ΔTm at 25 µM [2] [°C] | effect on melting of unrelated protein Hsc70 [3] | Compound | heat shock induced chaperone (Hsp25 and Hsp70) expression [1] | binding to HSF1 ([2]; thermal denaturation assay) | effect on melting temperature of HSF1 [2] | viability of C4-2 compared to BPH-1 [4] | potency compared to Compound 0017 [4] |
| --- | --- | --- | --- | --- | --- | --- | --- |
| 5.1 | did not affect the melting | O=C(Nc1ccc(F)cc1)Nc1ccc(Br)c(C(F)(F)F)c1 [Compound 0005, 1-(4-bromo-3-(trifluoromethyl)phenyl)-3-(4-fluorophenyl)urea] | – | – | stabilized the melting temperature of HSF1 | – | – |
| 2.3 | – | O=c1c(Nc2ccc(F)cc2)c(Nc2ccc(Cl)c(C(F)(F)F)c2)c1=O [Compound 0064, 3-[4-chloro-3-(trifluoromethyl)anilino]-4-(4-fluoroanilino)cyclobut-3-ene-1,2-dione] | – | – | – | preferentially inhibit the viability | increased potency compared to Compound 0017 |

More lines, now with the values behind:

| Compound | ΔTm at 25 µM [2] [°C] | effect on melting of unrelated protein Hsc70 [3] | heat shock induced chaperone (Hsp25 and Hsp70) expression [1] | binding to HSF1 ([2]; thermal denaturation assay) | effect on melting temperature of HSF1 [2] | viability of C4-2 compared to BPH-1 [4] | potency compared to Compound 0017 [4] |
| --- | --- | --- | --- | --- | --- | --- | --- |
| O=C(Nc1ccccc1)Nc1ccccc1 [1,3-diphenylurea, reference compound] | – | – | showed no impact on HSF1 activity | fails to bind HSF1 | – | – | – |
| O=C(Nc1ccc(Cl)cc1)Nc1csc([N+](=O)[O-])c1 [Compound 0009] | 4.1 | did not affect the melting | – | – | stabilized the melting temperature of HSF1 | – | – |
| COc1cccc(-c2cnc(Nc3ccc(F)cc3)s2)c1 [Compound 0050] | 2.93 | did not affect the melting | – | – | stabilized the melting temperature of HSF1 | – | – |
| O=C(Nc1ccc(F)cc1)Nc1ccc(Cl)c(S(=O)(=O)C(F)(F)F)c1 [Compound 0054, 1-[4-chloro-3-(trifluoromethylsulfonyl)phenyl]-3-(4-fluorophenyl)urea] | 2.9 | – | – | – | – | preferentially inhibit the viability | increased potency compared to Compound 0017 |
